Counter-ions that a name gives are not always drawn.
Assays:
[1] = system: negative lens-induced myopia; assay: Negative lens-induced myopia (LIM) model in guinea pigs: interocular difference in refraction; conditions: for refraction indicators vs vehicle group: after the end of the administration period (7 days); for refraction indicators vs vehicle group / efficacy (refraction) in comparison between groups: 0.4%, 100 µL daily; for efficacy (refraction) in comparison between groups: day 3 of administration
Description: (§1) Form-deprivation and lens-induced myopia models in guinea pigs are classic and recognized myopic animal models in the art, and may be used for evaluating efficacy and safety of myopia treatment drugs, and methods for establishing such models are well-known to those skilled in the art. For animal modeling and administration routes in the present application, reference is made to previously published scientific documents by the research group (Sen Zhang, Invest Ophthalmol Vis Sci. 2019 Jul 1; 60(8):3074-3083.; Miaozhen Pan, Exp Eye Res. 2021 Jan; 202:108332.).
After individuals with significant ocular diseases or abnormalities were eliminated from healthy 3-week-old tricolor guinea pigs (both males and females), by detecting refraction (using an infrared eccentric photorefraction device) and the eye axis (using A-scan ultrasonography), animals with refractive power between 3 diopters and 8.5 diopters (D), an interocular difference in refraction not exceeding 2 D, and both interocular differences in vitreous chamber depth and axial length not exceeding 0.05 mm were selected. These animals were randomly divided into the following 5 groups. • 1. Lens induction + vehicle control group (Control): monocular wear of a -4 D lens, with 100 µL of vehicle (DMSO:PEG300:Tween80:0.9% normal saline = 1:45:5:49) administrated to the lens-wearing eye daily for 1 week, and the number of samples = 11; • 2. Lens induction + R-alpha lipoic acid experimental group (R.ALA): monocular wear of a -4 D lens, with 100 µL of 0.4% R-alpha lipoic acid administrated to the lens-wearing eye daily for 1 week, and the number of samples = 15; • 3. Lens induction + S-alpha lipoic acid experimental group (S.ALA): monocular wear of a -4 D lens, with 100 µL of 0.4% S-alpha lipoic acid administrated to the lens-wearing eye daily for 1 week, and the number of samples = 13; • 4. Lens induction + dihydrolipoic acid experimental group (DHLA): monocular wear of a -4 D lens, with 100 µL of 0.4% dihydrolipoic acid administrated to the lens-wearing eye daily for 1 week, and the number of samples = 14; • 5.
Beginning on the day of modeling, the corresponding vehicle or drug was administrated to the experimental eye (lens-wearing eye) daily between 9:00 AM and 10:00 AM via periocular subconjunctival injection at an injection volume of 100 µL, once daily for 1 week. All procedures for negative lens-induced myopia modeling, peribulbar injection administration, detection of parameters such as refraction, and data processing for all the subjects were consistent with the schemes previously used by the research group (CN114796205B). At the beginning, on day 3, and at the end of the LIM model efficacy experiment, the refraction was detected in animal subjects. The statistical basis was the difference between the experimental eye (lens-wearing eye) and the contralateral eye of the same subject.

[2] = system: negative lens-induced myopia; assay: Choroidal thickness (OCTA) in the LIM myopia model; type: in vivo, guinea pigs; conditions: after the 7-day administration experiment of Example 7; vs vehicle control group
Method: Using the animal subjects in Example 7, choroidal parameters were detected after completion of the experiment (a few animals died during the measurement due to reasons unrelated to the test drugs, so these samples were eliminated). Specifically, choroidal thickness was measured in the LIM myopia model animals after completion of the 7-day administration experiment. Commercially available OCTA (Spectralis HRA + OCT, OCTA, Heidelberg, Germany) modified to be more suitable for animal eyeballs was used to detect the choroidal thickness. Before detection, the guinea pigs were fully anesthetized.

[3] = system: age-related macular degeneration; conditions: oral administration; Kim et al. 2020; cited from earlier work
form-deprivation myopia [4] = assay: Choroidal thickness (OCT) in the guinea pig form-deprivation model; type: in vivo, guinea pigs
Method: Choroidal thickness of all animal subjects in Example 2 were detected using Spectralis HRA + OCT (Heidelberg Engineering, Heidelberg, Germany) for 30 minutes to 60 minutes after the final administration (of either the vehicle or lipoic acid).
After completion of the experiment, the choroidal thickness was detected in animals in the two control groups and the 0.5% lipoic acid choline ester eye drop administration group in Example 6 (some animals died during the measurement due to reasons unrelated to the test drugs, so the corresponding samples were eliminated).

form-deprivation myopia [5] = assay: Form-deprivation myopia model (FDM) in guinea pigs: interocular differences in refraction and eye axis parameters; conditions: for Difference in Refraction (Refraction, D) Mean / Difference in Axial Length (AL, mm) Mean / Difference in Vitreous Chamber Depth (VCD, mm) Mean: FD + 0.94% lipoic acid, experimental eye vs contralateral eye; for Difference in Refraction (Refraction, D) Mean: periocular subconjunctival injection 100 µL once daily; for Difference in Axial Length (AL, mm) Mean / Difference in Vitreous Chamber Depth (VCD, mm) Mean: subconjunctival injection once daily; for myopia inhibition rate: 0.94% lipoic acid compared to the vehicle control group
Description: as §1
After individuals with significant eye diseases or abnormalities were eliminated from three-week-old tricolor guinea pigs, by detecting refraction (using an infrared eccentric photorefraction device) and the eye axis (using A-scan ultrasonography), animals with refractive power between 3 and 8 diopters (D), an interocular difference in refraction not exceeding 2 D, and interocular differences in vitreous chamber depth and axial length not exceeding 0.05 mm were selected. These animals were randomly divided into two groups: an FD + vehicle control group (1% DMSO + 49% PEG300 + 50% normal saline, by volume) and an FD + 0.94% lipoic acid drug treatment group. At 8:00 AM on day 1 of the experiment, form deprivation was induced in the guinea pigs using a mask method, where the right eye (experimental eye) was occluded and the left eye was left unoccluded (contralateral eye). The FD induction was maintained throughout the entire period of the lipoic acid efficacy experiment, with the hoods only briefly removed for drug administration or ocular examination (for example, refraction detection). Starting on the first day of the efficacy experiment, position of the hood was checked daily at 8:00 AM, 12:00 PM, and 7:00 PM, as well as prior to administration. Individuals with hoods fell off more than three times during the administration period were excluded. Beginning on the day of modeling, the corresponding vehicle or drug (lipoic acid formulation) was administrated to the experimental eye daily between 9:00 AM and 10:00 AM via periocular subconjunctival injection at an injection volume of 100 µL. The vehicle or drug was administrated once daily for two consecutive weeks. Interocular refraction and eye axis parameters of all subjects were measured at the start of the efficacy experiment, 1 week after administration, and after the final administration. All data collection and processing methods were the same as those previously published by the laboratory of the inventors (Pan M, Zhao F, Xie B, et al. Dietary omega-3 polyunsaturated fatty acids are protective for myopia. Proc Natl Acad Sci U S A 2021 Oct 26; 118(43):e2104689118). Statistical basis was the difference between the experimental eye and the contralateral eye in the same subject.
Utilizing the same efficacy evaluation system for myopia treatment in the guinea pig form-deprivation model as described in Example 2, the prevention and control effects of mexidol, pyridoxol, astaxanthin, and blueberry fruit extract on myopia were compared against lipoic acid. The administration route was periocular subconjunctival injection.
The same efficacy evaluation system for myopia treatment in the guinea pig form-deprivation model as described in Example 2 was utilized to evaluate the myopia treatment effects of blueberry fruit extract + lipoic acid compound formulations at different prescription ratios. The administration route was periocular subconjunctival injection.

myopia [6] = conditions: higher concentration of atropine; cited from earlier work
presbyopia [7] = conditions: cited from earlier work
presbyopia [8] = conditions: interim analysis, presbyopia treatment; cited from earlier work
[9] = system: form-deprivation-induced myopia; conditions: mice with pigmentary degeneration of retina caused by a gene mutation (rd10); Landis et al. 2016; cited from earlier work
myopia [10] = conditions: wild-type mouse myopia models; cited from earlier work

## O=C(O)CCCC[C@@H](S)CCS (racemic) [dihydrolipoic acid, Dihydrolipoic acid]
[1]
  refraction indicators vs vehicle group: extremely significant differences compared with the vehicle group
[1]; guinea pig, in vivo
  anterior chamber depth and lens thickness, FIG. 10: did not affect the anterior chamber depth and lens thickness
  ocular irritations: neither the optical isomers of lipoic acid nor dihydrolipoic acid caused ocular irritations
[2]
  choroidal thickness, experimental eye vs contralateral eye, FIG. 13: could effectively inhibit the decrease in choroidal thickness

## O=C(O)CCCCC1CCSS1 (stereo not drawn) [Lipoic acid, alpha-lipoic acid]
[3]
  efficacy, clinical endpoint: did not reach a clinical endpoint
form-deprivation myopia [4]; animals of Example 2 (0.94% lipoic acid), 30 to 60 minutes after the final administration
  choroidal thickness, experimental eye vs contralateral eye: could significantly inhibit the decrease in choroidal thickness in myopic eyes
form-deprivation myopia [5]; 1 Week
  Difference in Refraction (Refraction, D) Mean: -2.2 D
  Difference in Axial Length (AL, mm) Mean: 0.04364 mm
  Difference in Vitreous Chamber Depth (VCD, mm) Mean: 0.0009091 mm
form-deprivation myopia [5]; 1 Week, listed as lipoic acid
  Difference in Axial Length (AL, mm) Mean: 0.04364 + 0.03295 mm
  Difference in Vitreous Chamber Depth (VCD, mm) Mean: 0.0009091 + 0.027 mm
form-deprivation myopia [5]; 2 Weeks
  Difference in Refraction (Refraction, D) Mean: -4.673 D
  Difference in Axial Length (AL, mm) Mean: 0.06364 mm
  Difference in Vitreous Chamber Depth (VCD, mm) Mean: 0.08545 mm
form-deprivation myopia [5]; 2 Weeks, listed as lipoic acid
  Difference in Axial Length (AL, mm) Mean: 0.06364 ± 0.03722 mm
  Difference in Vitreous Chamber Depth (VCD, mm) Mean: 0.08545 + 0.02067 mm
form-deprivation myopia [5]; Baseline
  Difference in Refraction (Refraction, D) Mean: -0.04545 D
  Difference in Axial Length (AL, mm) Mean: -0.004545 mm
  Difference in Vitreous Chamber Depth (VCD, mm) Mean: 0.09273 mm
form-deprivation myopia [5]; Example 4, 0.3% R-alpha lipoic acid, subconjunctival injection, 1 and 2 weeks
  axial elongation and increase in vitreous chamber depth, FIG. 5: could effectively inhibit the axial elongation and the increase in vitreous chamber depth
form-deprivation myopia [5]; Example 4, week 1 detection, 0.3% R-alpha lipoic acid (R-LA), periocular subconjunctival injection, compared with the other test drugs
  refraction (interocular difference), FIG. 4: optimal myopia treatment effect
form-deprivation myopia [5]; guinea pig, in vivo
  anterior chamber depth, lens thickness, corneal curvature: unaffected by the drug
  mydriatic effect (pupil diameter): No mydriatic effect was observed
  toxic reactions, ocular irritations, significant ocular abnormalities: no any toxic reactions, ocular irritations, or significant ocular abnormalities were observed
form-deprivation myopia [5]; week 1 of treatment
  myopia inhibition rate: 42.4%
form-deprivation myopia [5]; week 2 of treatment
  myopia inhibition rate: 21.1%

## O=C(O)CCCC[C@@H]1CCSS1 [R-alpha lipoic acid]
[1]
  refraction indicators vs vehicle group: extremely significant differences compared with the vehicle group
  efficacy (refraction) in comparison between groups: superior to that of the dihydrolipoic acid group
[2]
  choroidal thickness, experimental eye vs contralateral eye, FIG. 13: could more significantly increase the choroidal thickness
form-deprivation myopia [5]; Example 4, end of the administration period (2 weeks), subconjunctival injection, 0.05% atropine sulfate, 0.3% R-LA, 0.37% ES, 0.3% PH, 0.87% ASTA, 6% BFE, vs control
  refraction (interocular difference), FIG. 4: significant myopia treatment effects

## O=C(O)CCCC[C@H]1CCSS1 [S-alpha lipoic acid]
[1]
  efficacy (refraction) in comparison between groups: superior to that of the dihydrolipoic acid group

## CN1[C@@H]2CC[C@H]1C[C@@H](OC(=O)C(CO)c1ccccc1)C2 (stereo partly drawn) [atropine sulfate, Atropine sulfate, reference compound]
Myopia [6]
  effect upon discontinuation: rebound effect upon discontinuation
[2]
  choroidal thickness, experimental eye vs contralateral eye, FIG. 13: could effectively inhibit the decrease in choroidal thickness

## C[N+](C)(C)CCOC(=O)CCCC[C@@H]1CCSS1 [lipoic acid choline ester, R-alpha-Lipoic acid choline ester]
Presbyopia [7]; eye drops at a concentration of 1.5%
  bioavailability: good bioavailability
Presbyopia [7]; in vivo
  safety: high safety
form-deprivation myopia [4]; Example 9, 0.5% lipoic acid choline ester eye drops, after completion of Example 6, vs negative control group
  thinning of the choroid (choroidal thickness), FIG. 12: could effectively inhibit thinning of the choroid
Presbyopia [8]
  primary endpoint: fails to meet the primary endpoint
form-deprivation myopia [5]; Example 6, 0.5% LACE eye drops twice a day, 25 µL, vs vehicle
  axial elongation, FIG. 8-1 (B): significantly inhibit the axial elongation
form-deprivation myopia [5]; Example 6, LACE eye drops 0.5% and 0.15%
  dose-effect relationship of myopia treatment effect: positively related dose-effect relationship
form-deprivation myopia [5]; Example 6, direct eye drop instillation twice a day, 25 µL, 0.5% LACE, 0.05% atropine sulfate positive control, throughout the administration period, vs vehicle
  progression of negative refraction, FIG. 8-1 (A): could significantly inhibit progression of negative refraction
form-deprivation myopia [5]; guinea pig, in vivo
  anterior chamber depth, lens thickness, corneal curvature, FIG. 8-2: no statistical differences
  drug-induced mydriasis: did not observe drug-induced mydriasis
  ocular abnormalities or mydriasis: no ocular abnormalities or mydriasis were observed

## O=C1O[C@H]([C@@H](O)CO)C(O)=C1O [vitamin C, ascorbic acid]
[9]
  form-deprivation-induced myopia: inhibit form-deprivation-induced myopia
Myopia [10]
  therapeutic effects on myopia: failed to achieve therapeutic effects
